Laboratory results taken from patent publication US12655116B2, “Substituted isophthalic acid diamides” (Bayer Aktiengesellschaft, priority 2020, dated 2026).

What was measured:
VERPE [1] = experiment: Pre-emergence herbicidal action against VERPE; type: in vivo, Veronica persica
Procedure, shortened: (§1)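 Pre-emergence soil-surface spray of formulated compound (WP or EC; 600 to 800 l/ha; 0.2% wetting agent) over seeds sown in sandy loam. After 3 weeks under greenhouse conditions, damage is estimated visually in percent against untreated plants.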

ALOMY [2] = experiment: Pre-emergence herbicidal action against ALOMY; type: in vivo, Alopecurus myosuroides; details: 80 g/ha, pre-emergence, scored visually after 3 weeks vs untreated controls (100% = plants have died, 0% = like control plants)
Procedure, shortened: as §1

ECHCG [3] = experiment: Post-emergence herbicidal action against ECHCG; type: in vivo, Echinochloa crus-galli
Procedure, shortened: (§2)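 Spray, one-leaf stage: WP or EC compound in water, 600–800 l/ha, 0.2% wetting agent. Plants held about 3 weeks in the greenhouse, then visually rated in percent of kill compared with untreated controls.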

AMARE [4] = experiment: Post-emergence herbicidal action against AMARE; type: in vivo, Amaranthus retroflexus; details: 20 g/ha, visual assessment about 3 weeks after treatment, 100% = plants have died, 0% = like control plants
Procedure, shortened: as §2

AMARE [5] = experiment: Pre-emergence herbicidal action against AMARE; type: in vivo, Amaranthus retroflexus
Procedure, shortened: as §1

DIGSA [6] = experiment: Pre-emergence herbicidal action against DIGSA; type: in vivo, Digitaria sanguinalis
Procedure, shortened: as §1

ECHCG [7] = experiment: Pre-emergence herbicidal action against ECHCG; type: in vivo, Echinochloa crus-galli; details: 80 g/ha
Procedure, shortened: as §1

POLCO = experiment: Pre-emergence herbicidal action against POLCO; type: in vivo, Polygonum convolvulus; details: dosage 80 g/ha
Procedure, shortened: as §1

PHBPU [8] = experiment: Pre-emergence herbicidal action against PHBPU; type: in vivo, Pharbitis purpurea
Procedure, shortened: as §1

VIOTR = experiment: Pre-emergence herbicidal action against VIOTR; type: in vivo, Viola tricolor
Procedure, shortened: as §1

LOLRI = experiment: Pre-emergence herbicidal action against LOLRI; type: in vivo, Lolium rigidum; details: 80 g/ha
Procedure, shortened: as §1

PHBPU [9] = experiment: Post-emergence herbicidal action against PHBPU; type: in vivo, Pharbitis purpurea
Procedure, shortened: as §2

VERPE [10] = experiment: Post-emergence herbicidal action against VERPE; type: in vivo, Veronica persica; details: 20 g/ha
Procedure, shortened: as §2

ALOMY [11] = experiment: Post-emergence herbicidal action against ALOMY; type: in vivo, Alopecurus myosuroides; details: dosage 20 g/ha, visual assessment about 3 weeks after treatment vs untreated controls
Procedure, shortened: as §2

MATIN [12] = experiment: Pre-emergence herbicidal action against MATIN; type: in vivo, Matricaria inodora
Procedure, shortened: as §1

MATIN [13] = experiment: Post-emergence herbicidal action against MATIN; type: in vivo, Matricaria inodora; details: dosage 20 g/ha
Procedure, shortened: as §2

DIGSA [14] = experiment: Post-emergence herbicidal action against DIGSA; type: in vivo, Digitaria sanguinalis; details: for Post-emergence action against DIGSA in %: 5 g/ha; for Post-emergence action against DIGSA: 20 g/ha
Procedure, shortened: as §2

SETVI [15] = experiment: Post-emergence herbicidal action against SETVI; type: in vivo, Setaria viridis
Procedure, shortened: as §2

AVEFA = experiment: Pre-emergence herbicidal action against AVEFA; type: in vivo, Avena fatua; details: 80 g/ha, pre-emergence
Procedure, shortened: as §1

ABUTH [16] = experiment: Post-emergence herbicidal action against ABUTH; type: in vivo, Abutilon theophrasti; details: visual assessment about 3 weeks after treatment vs untreated controls
Procedure, shortened: as §2

SETVI [17] = experiment: Pre-emergence herbicidal action against SETVI; type: in vivo, Setaria viridis; details: dosage 80 g/ha
Procedure, shortened: as §1

ABUTH [18] = experiment: Pre-emergence herbicidal action against ABUTH; type: in vivo, Abutilon theophrasti; details: for Pre-emergence action against ABUTH (herbicidal activity): 80 g/ha, scored visually after 3 weeks vs untreated controls (100% = plants have died, 0% = like control plants); for Pre-emergence action against ABUTH (herbicidal activity in percent): dosage 20 g/ha, scored visually after 3 weeks vs untreated controls, 100% = plants have died, 0% = like control plants
Procedure, shortened: as §1

[19] = 20 g/ha, scored visually after 3 weeks vs untreated controls, 100% = plants have died, 0% = like control plants
[20] = 80 g/ha, scored visually after 3 weeks vs untreated controls (100% = plants have died, 0% = like control plants)

Structure (SMILES)	Pre-emergence action against VERPE in % (VERPE [1]; dosage 20 g/ha) [%]	Pre-emergence action against VERPE in % (VERPE [1]; dosage 80 g/ha) [%]	Pre-emergence action against ALOMY (herbicidal activity) (ALOMY [2]) [%]	Post-emergence action against ECHCG in % (ECHCG [3]; dosage 20 g/ha) [%]	Post-emergence action at 20 g/ha against AMARE in % (AMARE [4]) [%]	Pre-emergence action against AMARE in % (AMARE [5]; [19]) [%]	Pre-emergence action against AMARE in % (AMARE [5]; [20]) [%]	Pre-emergence action against DIGSA in % (DIGSA [6]; dosage 20 g/ha) [%]	Pre-emergence action against DIGSA in % (DIGSA [6]; dosage 80 g/ha) [%]	Pre-emergence action against ECHCG in % (ECHCG [7]) [%]	Pre-emergence action against POLCO in % (POLCO) [%]	Pre-emergence action against PHBPU in % (PHBPU [8]; dosage 80 g/ha) [%]	Pre-emergence action against VIOTR in % (VIOTR; dosage 20 g/ha) [%]	Pre-emergence action against VIOTR in % (VIOTR; dosage 80 g/ha) [%]	Pre-emergence action against LOLRI in % (LOLRI) [%]	Post-emergence action against PHBPU in % (PHBPU [9]; dosage 5 g/ha) [%]	Post-emergence action against PHBPU in % (PHBPU [9]; dosage 20 g/ha) [%]	Post-emergence action against VERPE in % (VERPE [10]) [%]	Post-emergence action against ALOMY in % (ALOMY [11]) [%]	Pre-emergence action against MATIN in % (MATIN [12]; dosage 80 g/ha) [%]	other results
CCn1nnnc1NC(=O)c1ccc(C(F)F)c(C(=O)NC(C)C2CC2)c1C (stereo not shown) [Example 2-339]	80	100	90	90	90	100	100	100	100	100	80	80	100	100	80	90	90	80	80	100	Pre-emergence action against MATIN in % (MATIN [12]; dosage 20 g/ha): 100%; Post-emergence action against MATIN in % (MATIN [13]): 80%; Post-emergence action against DIGSA in % (DIGSA [14]): 80%; Post-emergence action against DIGSA (DIGSA [14]): 90%; Post-emergence action against SETVI in % (SETVI [15]; dosage 20 g/ha): 100%; Pre-emergence action against AVEFA in % (AVEFA): 80%; Post-emergence action against ABUTH in % (ABUTH [16]; dosage 5 g/ha): 80%; Post-emergence action against ABUTH in % (ABUTH [16]; dosage 20 g/ha): 80%; Pre-emergence action against SETVI in % (SETVI [17]): 100%; Pre-emergence action against ABUTH (herbicidal activity) (ABUTH [18]): 100%; Pre-emergence action against ABUTH (herbicidal activity in percent) (ABUTH [18]): 100%
Cc1c(C(=O)Nc2nnnn2C)ccc(C(F)F)c1C(=O)NC(C)C1CC1 (stereo not shown) [Example 1-339]	100	100	90	90	90	100	100	100	100	100	80	100	100	100	100	80	90	90	80	100	Post-emergence action against ECHCG in % (ECHCG [3]; dosage 5 g/ha): 90%; Pre-emergence action against PHBPU in % (PHBPU [8]; dosage 20 g/ha): 100%; Post-emergence action against MATIN in % (MATIN [13]): 80%; Post-emergence action against DIGSA in % (DIGSA [14]): 90%; Post-emergence action against DIGSA (DIGSA [14]): 90%; Post-emergence action against SETVI in % (SETVI [15]; dosage 5 g/ha): 80%; Post-emergence action against SETVI in % (SETVI [15]; dosage 20 g/ha): 90%; Pre-emergence action against AVEFA in % (AVEFA): 100%; Pre-emergence action against ABUTH (herbicidal activity) (ABUTH [18]): 100%; Pre-emergence action against ABUTH (herbicidal activity in percent) (ABUTH [18]): 90%
